# Experimental data from article PMC8126811, “Clinical translation of choline and geranic acid deep eutectic solvent” (Bioengineering & Translational Medicine, 2020).
# Legend:
# [1] = octanol-water partition coefficient; no reference given; cited from earlier work
# [2] = Human cadaver skin permeation evaluation (static Franz cells); type: in vitro ADME
# Procedure: Dermatomed full thickness human cadaver skin samples, 250–350 μm, were mounted onto static Franz cells. […] Phosphate buffered saline, pH 7.4 was used as the receptor medium. CGB400 gel was applied to the SC side of the skin samples at a dose of ~15 μl/cm^2 (~15 mg/cm^2). The cells were kept in a chamber at 37°C for a period of 24 h. Stirrers in the receptor chamber ensured that the receptor media was well mixed during this time. The receptor media was sampled at 4, 7, and 24 h to quantify the amount of choline and geranic acid permeation. After 24 h, the skin surface was washed before removing the SC by tape stripping. The SC was stripped from the epidermis using an adhesive tape up to 10 layers (SC1, SC2‐5, SC6‐10). Following SC removal, the epidermis was separated from the dermis using a surgical sterile scalpel and the dermis was cut into pieces. Each layer was collected separately in glass vials containing 2 ml of 50:50 water:methanol mixture and was left to shake overnight to extract the choline and geranic acid. The amount of choline and geranic acid was measured using LC–MS/MS in the wash, epidermis, dermis, and the receptor medium.
Compound,LogP [1],applied CAGE1:2 dose penetrated into the dermis [2],molar ratio of choline to geranic acid in the epidermis [2]
C[N+](C)(C)CCO [choline],−3.7,–,–
CC(C)=CCC/C(C)=C/C(=O)O [geranic acid],2.8,–,–
Choline geranate [CAGE1:2],–,About 9.5%,1.18
